Reference: patent US12038377B2, “Devices, compositions and methods for imaging with Raman scattering” (THE TRUSTEES OF COLUMBIA UNIVERSITY IN THE CITY OF NEW YORK, priority 2013, dated 2024)
Where a name gives a salt, the structure may show the parent alone. Blank lines part the entries; values can stand above or below the compound they belong to. Starred links: 1 amine or outer side, 2 acyl side, 3 side chain; linkers in the order of their positions; H or OH if unused. Positions of bridges follow the written chain, without caps; N, C: chain ends. Non-standard residues stand in square brackets, D forms with d. Residues, ends and D or L forms follow the SMILES beside them. Chains are numbered I, II in the order given. *: point of attachment. Actinocin(9to1) = Cc1c2oc3c(C)ccc(C(=O)[*:1])c3nc-2c(C(=O)[*:2])c(N)c1=O; NMeV = CN[C@H](C(=O)O)C(C)C; Cbz = O=C(OCc1ccccc1)*; Sar = CNCC(=O)O

What was measured:
[1] = test system: hippocampal neuronal cultures; experiment: Pulse-chase imaging of proteome turnover in hippocampal neuronal cultures under proteasomal stress; format: cell-based
Description: Regular Medium of D12 hippocampal neuronal cultures was replaced by methionine-deficient medium containing 1 mM L-Homopropargylglycine (e.g., HPG, C10186, Invitrogen) for 12 h. The medium was then exchanged to fresh methionine-deficient medium containing 1 mM AHA with or without 10 μM MG132 (e.g., M7449 SIGMA) for another 10 h. Cells were fixed with 4% PFA for 20 min, permeabilized with 0.5% Triton for 15 min. The immuno-staining procedures were the same as described above. Then 1.25 μM MARS2228-azide with Click-iT® Cell Reaction Buffer was added to cells/slices to react with HPG for 20 min. After washing with PBS, 4 μM Alexa 647-alkyne with Click-iT® Cell Reaction Buffer was added to react with AHA for 20 min. Cells were washed with PBS before imaging.
6 technical replicates of 8-colour images were acquired from 3 independent neuronal co-cultures (e.g., the same condition as described above for FIGS. 48d1-48d5) for statistical presentation. […] Cross-checking 8-colour staining, the percentages of astrocytes with aggregations (e.g., the number of astrocytes with aggregations divided by the total number of astrocytes) and the percentages of neurons with aggregations (e.g., the number of neurons with aggregations divided by the total number of neurons) were calculated for each image sets. […]

[2] = test system: RNA synthesis in HeLa cells; experiment: SRS imaging of EU incorporation (RNA transcription), control with RNA synthesis inhibitor; format: cell-based; conditions: 200 nM actinomycin D, 2 mM EU, live HeLa cells
From the text: Next, we studied RNA transcription and turnover using the alkyne-tagged uridine analogue, 5-ethynyl uridine (EU)8 in Hela cells (e.g. FIG. 12a).

HeLa cells [3] = experiment: Alkyne-D-glucose uptake and competition in live HeLa cells (SRS); format: cell-based
[4] = test system: protein synthesis in HeLa cells; experiment: Protein synthesis inhibition in HeLa cells incubated with deuterium-labeled all amino acids (C-D signal); format: cell-based; conditions: 5 μM anisomycin
Description: FIGS. 34a-34i is a set of exemplary images based on SRS imaging of time-dependent de novo protein synthesis and drug-induced protein synthesis inhibition effect in live HeLa cells incubated in deuterium-labeled all amino acid medium. […] As a control, the amide I (1655 cm^−1) signal remains at a steady state over time (5 hrs—FIG. 34d, 12 hrs—FIG. 34e, 20 hrs—FIG. 34f). FIGS. 34g-34i illustrate ratio images between the SRS image at 2133 cm^−1 (newly synthesized proteins) and the SRS image at 1655 cm^−1 (the amide I band from total proteins), representing the relative new protein fraction with subcellular resolution at each time point (5 hrs—FIG. 34g, 12 hrs—FIG. 34h, 20 hrs—FIG. 34i). The bar represents the ratio ranging from low to high.
The effect of protein synthesis inhibition by chemical drugs can be further tested to validate that the detected C-D signal indeed derives from nascent proteins. […] (See, e.g., FIG. 34k). […] Thus, the detected C-D SRS signal (e.g., FIGS. 34a-34c) can originate from deuterium-labeled nascent proteins, which can vanish upon adding the protein synthesis inhibitor.

[5] = test system: DNA synthesis in HeLa cells; experiment: SRS imaging of EdU incorporation during de novo DNA synthesis, control with DNA synthesis inhibitor; format: cell-based; conditions: 10 mM hydroxyurea, 100 μM EdU, live HeLa cells
HeLa cells [6] = conditions: 2 mM methionine competing with 2 mM Hpg, live HeLa cells
Description: FIG. 12f illustrates live Hela cells incubated with 2 mM Hpg alone (alkyne-on) and with 2 mM methionine (Control). […] For FIG. 12b, FIG. 12d, and FIG. 12f, alkyne-off and amide images display the same set of cells as the alkyne-on images; lipid images capture the same cells as control images.
Sample preparation for SRS imaging of live cells and organisms. For all SRS imaging experiments of HeLa cells (e.g. FIGS. 12a-12j), cells were first Seeded on coverslips with a density of 1×10^5/mL in petri dishes with 2 mL DMEM culture medium for 20 h at 37° C. and 5% CO2. • 1) EdU experiment, DMEM culture medium was then changed to DMEM medium (FBS-free) for 24 h for cell cycle synchronization. After synchronization, medium was replaced back to DMEM culture medium and EdU (10 mM stock in PBS) was simultaneously added to a concentration of 100 μM for 15 h. • 2) EU experiment, EU (100 mM stock in PBS) was added to the DMEM culture medium directly to a concentration of 2 mM for 7 h. • 3) Hpg experiment, DMEM culture medium was then changed to methionine-deficient culture medium for 1 h, followed by supplying 2 mM Hpg (200 mM stock in PBS) in the medium for 24 h. • 4) Propargylcholine and EdU dual-color experiment, DMEM culture medium was changed to DMEM medium (FBS-free) for synchronization. […]

mouse ear tissue = experiment: SRS imaging of drug delivery into mouse ear tissue
From the text: Sample preparation for drug delivery into mouse ear tissues. […] The amide (1655 cm^−1) and lipid (2845 cm^−1) images have been applied with linear spectral unmixing to eliminate cross talk before composition.
FIG. 17a depicts Raman spectra of a drug cream, Lamisil, containing 1% TH and mouse ear skin tissue. FIGS. 17b-17e illustrate SRS imaging of tissue layers from stratum corneum (z=4 μm) to viable epidermis (z=24 μm), sebaceous gland (z=48 μm) and subcutaneous fat (z=88 μm). To facilitate tissue penetration, DMSO solution containing 1% TH was applied onto the ears of an anesthetized live mouse for 30 min and the dissected ears are imaged afterwards. […] The composite images show protein (1655 cm^−1) and lipid (2845 cm^−1) distributions.
FIGS. 18a and 18b show SRS imaging of the viable epidermis layer (z=20 μm) and the sebaceous gland layer (z=40 μm). […] The composite images show both protein (1655 cm^−1) and lipid (2845 cm^−1) distributions.

Compound: CC(C)C[C@@H](C=O)NC(=O)[C@H](CC(C)C)NC(=O)[C@H](CC(C)C)NC(=O)OCc1ccccc1 [MG132] (Cbz-Leu-Leu-Leu-aldehyde)
cell type with proteome inclusions ([1]; 10 μM MG132, neuronal co-cultures, n=6): proteome inclusions appeared mostly in astrocytes instead of neurons | proteome turnover ([1]; 10 μM MG132 in the chase period, 10 h): retarded the proteome turnover

Compound: Cc1c2oc3c(C)ccc(C(=O)N[C@@H]4C(=O)N[C@H](C(C)C)C(=O)N5CCC[C@H]5C(=O)N(C)CC(=O)N(C)[C@@H](C(C)C)C(=O)O[C@@H]4C)c3nc-2c(C(=O)N[C@@H]2C(=O)N[C@H](C(C)C)C(=O)N3CCC[C@H]3C(=O)N(C)CC(=O)N(C)[C@@H](C(C)C)C(=O)O[C@@H]2C)c(N)c1=O [actinomycin D] (I: T[dV]P[Sar][NMeV] / II: T[dV]P[Sar][NMeV]; ester I:1-I:C, II:1-II:C; linker I:N-II:N via Actinocin(9to1))
EU alkyne-on signal (newly synthesized RNA) [2]: nearly disappears

Compound: C#CCOC1C(O)C(O)OC(CO)C1O [alkyne-D-glucose]
glucose signal inside cells (uptake) (HeLa cells [3]; 32 mM, live HeLa cells, 10 min to 4 h): increasing over time | alkyne-D-glucose signal under competition with regular D-glucose (HeLa cells [3]; D-glucose 10 mM, 50 mM and 100 mM): decreases | alkyne-D-glucose signal under competition with L-glucose (HeLa cells [3]; L-glucose): retained

Compound: COc1ccc(C[C@H]2NC[C@H](O)[C@H]2OC(C)=O)cc1 [anisomycin]
C-D signal in the spontaneous Raman spectrum (2133 cm−1) ([4]; HeLa cells, deuterium-labeled all amino acids): absence of the C-D signal | C-D SRS imaging signal of newly synthesized proteins ([4]; compared with no inhibitor): drastically weaker signal | total proteome signal (2940 cm−1 image) ([4]; versus non-drug treated counterpart): remains at a similar level

Compound: NC(=O)NO [hydroxyurea]
EdU signal (newly synthesized DNA) [5]: No EdU signal shows up

Compound: CSCC[C@H](N)C(=O)O [methionine, L-methionine]
Hpg signal (newly synthesized proteins) (HeLa cells [6]): causes the signal to disappear

depth of drug delivery imaged inside mouse ear tissue (mouse ear tissue; internal alkyne at 2230 cm−1, 1% TH applied 30 min): about 100 μm
Compound: CN(C/C=C/C#CC(C)(C)C)Cc1cccc2ccccc12 [terbinafine hydrochloride]
tissue penetration pathway (mouse ear tissue; 1% TH in DMSO, mouse ear, 30 min): penetrates into tissues through the lipid phase
